The record followed here is US20090123940A1, “MOLECULES INVOLVED IN SYNAPTOGENESIS AND USES THEREFOR” (THE JOHNS HOPKINS UNIVERSITY, priority 2007, published 2009).

In one test the test system is GluR1. Put plainly: Immunocytochemical staining of surface and internalized GluR1 in cultured hippocampal neurons. In kind it is cell-based. As to the method:
Immunocytochemical staining. Immunocytochemical staining of heterologous cells was performed as described (Xu et al., supra). For PMA-stimulation experiments, PMA (Sigma Cat #: P8139) at (150 nM) was added 90 minutes prior to live staining. Images were viewed and captured using Nikon E800 epifluorescence microscope fitted with a Princeton Instruments CCD camera. For live staining, neurons cultured on coverslips were incubated at 10° C. with the appropriate primary antibodies at the indicated dilutions in conditioned culture medium for 20 min. They were then washed with PBS and fixed with 4% paraformaldehyde/4% sucrose in PBS for 20 min at room temperature. Cells were permeablized with 0.2% Triton X-100 in PBS for 5 min and then blocked in 10% normal goat serum in PBS for 1 hr at room temperature. If intracellular proteins were of interest, coverslips were then incubated with antibody diluted in 10% normal goat serum for 1 hr at room temperature or overnight at 4° C. Coverslips were washed with PBS and incubated with secondary antibody conjugated to Alexa488 and Alexa555 (1:500 in 10% normal goat serum, Molecular Probes Eugene, Oreg.). Coverslips were mounted using the Prolong Antifade Kit (Molecular Probes, Eugene, Oreg.). For immunocytochemistry studies, mGluR1/5 were activated using the selective agonist (S)-DHPG (Tocris Cat.# 0805) with mGluR5 allosteric potentiator DFB (Tocris Cat.#1625). Neurons were incubated with DFB (50 μM) for 5 min and then DHPG (50 μM) for an additional 5 min in neuronal incubation medium and then transferred into the original incubation medium. […] Cells were incubated at 37° C. to allow endocytosis. At indicated time points, cells were incubated with N-terminal GluR1 mouse antibody (JH 4093; 0.2 μg/100 μl; kind gift from T. […] (to block endocytosis during staining). Cells were then processed for immunofluorescent staining as described above. An acid strip protocol was employed to measure endocytosed antibody labeled GluR1 (Snyder et al., 2001). Neurons were washed with progressively cooler NIM to slow basal endocytosis. Cells were then live labeled at 10° C. with GluR1 N-terminal antibody (0.2 μg/100 μL JH4094) antibody in NIM for 20 min. After washing unbound excess antibody, cells were incubated sequentially with DFB, DHPG, and original incubation medium at 37° C., as described above. After appropriate incubation times, cells were washed with 4° C. TBS. […] Neurons were then washed with 4° C. TBS followed by processing for immunofluorescent staining as described above. All neurons were viewed and captured using UltraVIEW spinning disk confocal microscope (PerkinElmer Life Sciences, Wellesley, Mass., USA) with a Nikon Eclipse TE 200 microscope and a 63× objective (Nikon, Melville, N.Y.). Images were acquired and saved as Tiff files with a dynamic range of 65536 grey levels (16-bit binary). Image analysis was performed using Metamorph imaging software (Universal Imaging, Downingtown, Pa.). For quantification of the punctate structures (e.g. GluR1), images were thresholded by grey value to differentiate single puncta. Segments of dendrites were selected and number of puncta was calculated per […] of length dendrite. Figures show ratios of calculated mean densities (number of puncta per unit length) from treated/control. Error bars were calculated using SEM and Gaussian error propagation. n=number of measured dendrites. Significance was determined by paired Student's T-test.

Test [1] deals with NPR cleavage at Site A (TACE). Put plainly: NPR cleavage assay in transfected HEK293T cells. Format: cell-based, rat. As to conditions: TAPI-2 50 μM; GM6001 25 μM. The procedure: Cleavage Assay HEK293T cells were plated in OptiMEM (Invitrogen, Carlsbad, Calif.) containing 5% FBS onto 6-well dishes at a density of 4×10^5 cells/mL (2 mL/well) 1 day before transfection. Cells were transfected with NPR in pRK5 using LipofectAMINE 2000 (Invitrogen, Carlsbad Calif.). After 24 hr the medium was replaced with serum-free OptiMEM. […] Samples from each well were obtained at specific time points, immediately placed on ice, centrifuged at 15,000 g to remove cell debris, and then treated with 2% β-mercaptoethanol containing loading buffer. At the end of the time course, the cells were lysed with RIPA buffer, centrifuged to remove cell debris, and treated with 2% β-mercaptoethanol in loading buffer. Samples (20 μL of medium or lysate diluted to 1/5) were run on SDS-PAGE gels and analyzed by Western blotting.

Test [2] deals with cultured cerebellar Purkinje cells. Put plainly: Basal electrophysiological properties and Ca2+ imaging in cultured cerebellar Purkinje cells. In kind it is cell-based, mouse. As to conditions: TAPI-2 10 μM; GM6001 1 μM; GM6001 control 1 μM; mean ± SEM. As to the method: Recording and Ca^2+ imaging in cerebellar cultures. Cultures of embryonic mouse cerebellum were prepared as previously described and recordings were performed according to our previously published method (Leitges et al., Neuron 44:585-94, 2004). […]. Test pulses were delivered using negative current pulses (300-700 nA, 30-80 msec duration). LTD-inducing pairing stimuli consisted of six, 3-s-long depolarizations to 0 mV, each delivered together with a test pulse of glutamate.
Membrane currents were recorded with an Axopatch 200A amplifier, and digitized at 10 kHz for exogenous glutamate responses and 20 kHz for mEPSCs. Signals were lowpass filtered at 5 kHz (1 kHz for mEPSCs) and acquired using Axograph X software (Axograph Scientific, Sydney, Australia). Recordings in which Rinput or Rseries varied by more than 10% were excluded from the analysis. For analysis of mEPSCs, Axograph X mini analysis software was used. This detected events based on closeness of fit of the mEPSC to a sliding template. Events smaller than − ? 4 pA were discarded. A separate template was created for each recording by averaging 30 of its most unambiguous mEPSCs as selected by eye.
Bis-Fura-2 ratio imaging of intracellular free Ca^2+ in the dendritic shafts of cultured Purkinje cells was accomplished by measuring the background corrected fluorescence ratio at 340 and 380 nm excitation using a cooled CCD camera system. In these experiments, EGTA was removed from the internal saline and replaced with 100 μM bis-Fura-2.

[3] abbreviates: cultured hippocampal neurons DIV 14-17, 45 min after DHPG, TAPI-2 = pretreatment (50 μM) before DHPG.
The mark [4] stands for this setting: neurons derived from control mice.

In the case of `N[C@H](C(=O)O)c1cc(O)cc(O)c1` [DHPG, (S)-3,5-dihydroxyphenylglycine], the “surface GluR1 puncta density” value in the test with GluR1 (DHPG treated neurons cultured from NP TKO mice) is given as 113.4±6.3 % of vehicle control; in the test on GluR1 (DHPG treated neurons derived from control mice) it was 68.5±6.0 % of vehicle control; in the test on GluR1 (setting [3]), 47.6±8.5 % of vehicle control. For the same molecule, the “internalized GluR1 (acid-strip protocol)” value with GluR1 (setting [4]) is on record as “evoked an increase in internalized GluR1”. In addition, in the test on GluR1 (setting [4]), the “time to maximal internalized GluR1 after addition of DHPG” value is listed as at most 5 min. The “GluR1 internalization (acid-strip protocol)” value with GluR1 (neurons from NP TKO mice) was “did not increase GluR1 internalization”.
Take `CC(C)C[C@H](CC(=O)NO)C(=O)N[C@H](C(=O)N[C@@H](C)C(=O)NCCN)C(C)(C)C` [TAPI-2]: the “surface GluR1 puncta density” value with GluR1 (setting [3]) is listed as 84.7±12.6 % of vehicle control. Besides, the “PMA-stimulated cleavage at Site A / secretion of LFC-NPR into the medium” value in test [1] was “inhibited”. Moreover, in test [2], the “DHPG-evoked (dendritic Ca2+ transient)” value is 231 ± 35 nM, the “Depol-evoked (dendritic Ca2+ transient)” value was determined as 604 ± 89 nM, the “Resting Ca2+” value amounted to 109 ± 22 nM and the “mEPSC 10-90% rise” value is listed as 1.8 ± 0.4 msec. In test [2], the “mEPSC 50% decay” value was 7.7 ± 0.6 ms and the mEPSC amp stood at 27 ± 7 pA.
